From patent publication US8466089B2, “Pyrazole compounds, process for their production and herbicides containing them” (Ishihara Sangyo Kaisha, Ltd., priority 2008, dated 2013) come the findings set out here.

What all share (assay): Test Example 1, foliar treatment in upland pots
Holding throughout (assay type): in vivo

One assay has as its system wheat (Triticum spp.). The conditions noted are these: 20th to 22nd day after application, visual, read-out: Growth inhibition rate (%) Wheat. The source says: (§1) Upland field soil was put into a 1/170,000 hectare pot, and seeds of various plants were sown. When the respective plants reached predetermined leaf stage ((1) barnyardgrass (Echinochloa crus-galli L.): 1.2 to 3.0 leaf stage, (2) crabgrass (Digitaria sanguinalis L.): 1.0 to 3.0 leaf stage, (3) green foxtail (Setaria viridis L.): 1.5 to 3.0 leaf stage, (4) redroot pigweed (Amaranthus retroflexus L.): cotyledon stage to 1.5 leaf stage, (5) prickly sida (Sida spinosa L.): cotyledon stage to 2.0 leaf stage, (6) velvetleaf (Abutilon theophrasti MEDIC.): cotyledon stage to 1.3 leaf stage, (7) rice (Oryza sativa L.): 1.2 to 2.5 leaf stage, (8) corn (Zea mays L.): 2.0 to 3.3 leaf stage, (9) soybean (Glycine max Merr.): primary leaf stage to 0.3 leaf stage) and wheat (Triticum spp.): 2.0 to 3.0 leaf stage, wettable powders or emulsifiable concentrates of the compounds of the present invention prepared in accordance with a conventional preparation method, were weighed so that the active ingredients became the prescribed amounts, and diluted with water in an amount corresponding to 500 liter per 1 hectare (containing 0.1 vol % of an agricultural spreader (“KUSARINOH”, manufactured by NIHON NOHYAKU CO., LTD.)). The spray solutions thus prepared were applied for foliar treatment by a small sprayer.
(§2) On the 20th to 22nd day after application, the state of growth of the respective plants was visually observed, and the herbicidal effect was evaluated by a growth inhibition rate (%) of 0 (equivalent to the non-treated area) to 100% (complete kill).

Assay [1] concerns velvetleaf (Abutilon theophrasti MEDIC.). Conditions: 20th to 22nd day after application, visual, read-out: Growth inhibition rate (%) Velvetleaf.
From the text: as §1, §2

For assay [2], the system named is soybean (Glycine max Merr.). Conditions: 20th to 22nd day after application, visual, read-out: Growth inhibition rate (%) Soybean.
From the text: as §1, §2

Assay [3] deals with green foxtail (Setaria viridis L.). Conditions: 20th to 22nd day after application, visual, read-out: Growth inhibition rate (%) Green foxtail.
From the text: as §1, §2

In the next assay the test system is corn (Zea mays L.). Conditions: 20th to 22nd day after application, visual, read-out: Growth inhibition rate (%) Corn.
From the text: as §1, §2

The subject of another assay is rice (Oryza sativa L.). The conditions noted are these: 20th to 22nd day after application, visual, read-out: Growth inhibition rate (%) Rice.
From the text: as §1, §2

In assay [4] the test system is crabgrass (Digitaria sanguinalis L.). The conditions noted are these: 20th to 22nd day after application, visual, read-out: Growth inhibition rate (%) Crabgrass.
From the text: as §1, §2

Assay [5] relates to redroot pigweed (Amaranthus retroflexus L.). The conditions noted are these: 20th to 22nd day after application, visual, read-out: Growth inhibition rate (%) Redroot pigweed.
From the text: as §1, §2

Assay [6] concerns barnyardgrass (Echinochloa crus-galli L.). Conditions: 20th to 22nd day after application, visual, read-out: Growth inhibition rate (%) Barnyardgrass.
From the text: as §1, §2

For assay [7], the system named is prickly sida (Sida spinosa L.). The conditions noted are these: 20th to 22nd day after application, visual, read-out: Growth inhibition rate (%) Prickly sida.
From the text: as §1, §2

As usually defined, the inhibition is the drop in the measured response relative to a control, in per cent. Regarding `COC(=O)OC(C)Oc1c(C(=O)c2ccc(S(C)(=O)=O)c(C(=O)OC)c2C)cnn1C` (stereo not drawn) [Compound No. 1-2, Methyl 3-(5-(1-(methoxycarbonyloxy)ethoxy)-1-methyl-1H-pyrazole-4-carbonyl)-2-methyl-6-(methylsulfonyl)benzoate], the inhibition at 7 g/ha with wheat (Triticum spp.) stood at 0%; in assay [1], 80%; in assay [2] it was 95%; in [3], 100%; in the assay on corn (Zea mays L.), 0%; with rice (Oryza sativa L.), 70%. The values for the inhibition at 7 g/ha in assay [4], in assay [5] and in assay [6] were 90%, 95% and 100%, respectively.
For `CCOC(=O)OC(C)Oc1c(C(=O)c2ccc(S(C)(=O)=O)c(OCCOC(C)C)c2C)cnn1C` (stereo not drawn) [Compound No. 1-5, Ethyl 1-(4-(3-(2-isopropoxyethoxy)-2-methyl-4-(methylsulfonyl)benzoyl)-1-methyl-1H-pyrazol-5-yloxy)ethyl carbonate], the inhibition at 7 g/ha in the assay with wheat (Triticum spp.) came to 0%; in assay [1], 80%; in assay [7] it was 0%; in [3], 80%; with corn (Zea mays L.), 10%; in the assay on rice (Oryza sativa L.), 20%. The results for the inhibition at 7 g/ha in assay [4], in assay [5] and in assay [6] were 90%, 80% and 95%, respectively.
Regarding `COCCOc1c(S(C)(=O)=O)ccc(C(=O)c2c(C)nn(C)c2OC(C)OC(=O)OC)c1C` (stereo not drawn) [Compound No. 1-6, 1-(4-(3-(2-Methoxyethoxy)-2-methyl-4-(methylsulfonyl)benzoyl)-1,3-dimethyl-1H-pyrazol-5-yloxy)ethyl methyl carbonate], the inhibition at 7 g/ha was found to be 0% with wheat (Triticum spp.); 98% in [1]; 80% in [2]; 70% in assay [7]; 95% in assay [3]; 0% with corn (Zea mays L.). The inhibition at 7 g/ha was found to be 70% with rice (Oryza sativa L.), 90% in assay [4], 90% in assay [5] and 90% in assay [6].
On to `CCCn1ncc(C(=O)c2ccc(S(C)(=O)=O)c(OCCOC)c2C)c1OC(C)OC(=O)OCC` (stereo not drawn) [Compound No. 3-1, Ethyl 1-(1-n-propyl-4-(3-(2-methoxyethoxy)-2-methyl-4-(methylsulfonyl)benzoyl)-1H-pyrazol-5-yloxy)ethyl carbonate], for which the inhibition at 7 g/ha in the assay with wheat (Triticum spp.) worked out at 0%; in assay [1], 60%; in assay [7] it was 0%; in assay [3], 30%; in the assay on corn (Zea mays L.) it was 0%; in the assay on rice (Oryza sativa L.) it was 0%. Also, the inhibition at 7 g/ha was 70% in assay [4], 80% in [5] and 70% in [6].
`COCCOc1c(S(C)(=O)=O)ccc(C(=O)c2cnn(C(C)C)c2OC(C)OC(=O)OC)c1C` (stereo not drawn) [Compound No. 4-1, 1-(1-Isopropyl-4-(3-(2-methoxyethoxy)-2-methyl-4-(methylsulfonyl)benzoyl)-1H-pyrazol-5-yloxy)ethyl methyl carbonate]: the inhibition at 7 g/ha in the assay on wheat (Triticum spp.) amounted to 0%; in assay [1] it was 100%; in assay [2], 95%; in [7], 60%; in assay [3] it was 95%; in the assay with corn (Zea mays L.), 0%. Besides, the inhibition at 7 g/ha came to 80% with rice (Oryza sativa L.), 90% in assay [4], 85% in assay [5] and 90% in [6].
Consider `Cc1c(C(=O)c2cnn(C)c2O)ccc(S(C)(=O)=O)c1OCCC(C)C` [Compound No. 5-1, (5-Hydroxy-1-methyl-1H-pyrazol-4-yl)(3-(2-isopropylethoxy)-2-methyl-4-(methylsulfonyl)phenyl)ketone], for which the inhibition at 7 g/ha in the assay on wheat (Triticum spp.) was found to be 0%; in [1], 10%; in [7], 40%; in [3], 50%; in the assay on corn (Zea mays L.), 0%; with rice (Oryza sativa L.) it was 0%. Besides, the inhibition at 7 g/ha in assay [4] worked out at 50%; in [5], 60%; in [6], 30%.
For the compound `COCCOc1c(S(C)(=O)=O)ccc(C(=O)c2c(C)nn(C)c2O)c1C` [Compound No. 5-2, (5-Hydroxy-1,3-dimethyl-1H-pyrazol-4-yl)(3-(2-methoxyethoxy)-2-methyl-4-(methylsulfonyl)phenyl)ketone], the inhibition at 7 g/ha amounted to 70% in [1]; 70% in assay [2]; 40% in [7]; 100% in assay [3]; 0% in the assay with corn (Zea mays L.); 50% in the assay with rice (Oryza sativa L.). Moreover, the inhibition at 7 g/ha in assay [4], in assay [5] and in [6] was 90% throughout.
As to `CCc1nn(C)c(O)c1C(=O)c1ccc(S(C)(=O)=O)c(OCCOC)c1C` [Compound No. 5-3, (5-Hydroxy-1-methyl-3-ethyl-1H-pyrazol-4-yl)(3-(2-methoxyethoxy)-2-methyl-4-(methylsulfonyl)phenyl)ketone], the inhibition at 7 g/ha in assay [1] was found to be 80%; in [2] it was 0%; in [7] it was 30%; in assay [3] it was 90%; in the assay on corn (Zea mays L.), 0%; with rice (Oryza sativa L.), 50%. The inhibition at 7 g/ha is 90% in assay [4], 95% in assay [5] and 90% in assay [6].
In the case of `CCn1nc(C)c(C(=O)c2ccc(S(C)(=O)=O)c(OCCOC)c2C)c1O` [Compound No. 6-1, (1-Ethyl-5-hydroxy-3-methyl-1H-pyrazol-4-yl)(3-(2-methoxyethoxy)-2-methyl-4-(methylsulfonyl)phenyl)ketone], the inhibition at 7 g/ha in the assay with wheat (Triticum spp.) was 0%; in [1] it was 50%; in assay [7], 0%; in [3], 60%; in the assay on corn (Zea mays L.), 0%; in the assay with rice (Oryza sativa L.), 20%. Moreover, the inhibition at 7 g/ha was 50% in assay [4], 60% in [5] and 10% in assay [6].
In the case of `CCCn1ncc(C(=O)c2ccc(S(C)(=O)=O)c(OCCOC)c2C)c1O` [Compound No. 7-1, (5-Hydroxy-1-n-propyl-1H-pyrazol-4-yl)(3-(2-methoxyethoxy)-2-methyl-4-(methylsulfonyl)phenyl)ketone], the inhibition at 7 g/ha was found to be 0% in the assay with wheat (Triticum spp.); 75% in [1]; 60% in [2]; 20% in [7]; 70% in assay [3]; 0% in the assay on corn (Zea mays L.). Moreover, the inhibition at 7 g/ha is 10% in the assay on rice (Oryza sativa L.), 70% in [4], 70% in [5] and 60% in [6].
